Assay results published in PMC10800876, “Evaluation of proline-rich antimicrobial peptides as potential lead structures for novel antimycotics against Cryptococcus neoformans” (Frontiers in Microbiology, 2024).
Values after ≈ are worked out from the molar mass of the structure shown. Where two headings read alike, the source gives them in different places. Non-standard residues stand in square brackets, D forms with d. Residues, ends and D or L forms follow the SMILES beside them. *: point of attachment. 5FAM = O=C1OC2(c3ccc(O)cc3Oc3cc(O)ccc32)c2ccc(C(=O)*)cc21; Ac6c = NC1(C(=O)O)CCCCC1

What was measured:
[1] = system: C. neoformans 1841 (serotype D); conditions: for activity of Cf-labeled peptide relative to the corresponding unlabeled peptide: C. neoformans 1841
[2] = system: C. neoformans H99 (serotype A)
[3] = system: C. neoformans KN99α (serotype A, mating type MATα)
[4] = C. neoformans 1841, read after 24 h, mean of three replicates (n = 3)
[5] = C. neoformans 1841, read after 48 h, mean of three replicates (n = 3)

Row | MIC (mg/L) 24 h, Cf-labeled peptides ([1]; 1841 (serotype D, 24 h)) | MIC (after 48 h) ([1]; 1841 (serotype D, 48 h)) | MIC (mg/L) 48 h, Cf-labeled peptides ([1]; 1841 (serotype D, 48 h)) | MIC (mg/L) 24 h, Cf-labeled peptides [1, 4] | MIC (mg/L) 48 h, Cf-labeled peptides [1, 5] | Compound | activity of Cf-labeled peptide relative to the corresponding unlabeled peptide [1] | other results
1 |  | 1.6 µM (≈ 4.55 µg/mL) |  | 8 mg/L (≈ 2.81 µM) | 8 mg/L (≈ 2.81 µM) | CC(C)C[C@H](NC(=O)[C@H](Cc1ccc(O)cc1)NC(=O)[C@@H]1CCCN1C(=O)[C@H](CCCNC(=N)N)NC(=O)[C@@H]1CCCN1C(=O)[C@H](CCCCN)NC(=O)[C@H](CCCCN)NC(=O)[C@@H]1CCCN1C(=O)[C@H](CCCNC(=N)N)NC(=O)C1(NC(=O)c2ccc3c(c2)C(=O)OC32c3ccc(O)cc3Oc3cc(O)ccc32)CCCCC1)C(=O)N1CCC[C@H]1C(=O)N[C@@H](CCCNC(=N)N)C(=O)N1CCC[C@H]1C(=O)N[C@@H](CCCNC(=N)N)C(=O)N1CCC[C@H]1C(=O)N1CCC[C@H]1C(=O)N[C@@H](CCCNC(=N)N)C(=O)N1CCC[C@H]1C(=O)N[C@H](C(=O)N[C@@H](CCCNC(=N)N)C(N)=O)C(C)C [Cf-Chex1Arg20 D4K] (5FAM-[Ac6c]RPKKPRPYLPRPRPPRPVR-NH2) | slightly less active | 
2 |  | 3.2 µM (≈ 9.07 µg/mL) |  | 4 mg/L (≈ 1.41 µM) | 4 mg/L (≈ 1.41 µM) | CC(C)C[C@H](NC(=O)[C@H](Cc1ccc(O)cc1)NC(=O)[C@@H]1CCCN1C(=O)[C@H](CCCNC(=N)N)NC(=O)[C@@H]1CCCN1C(=O)[C@H](CCCCN)NC(=O)[C@H](CC(=O)O)NC(=O)[C@@H]1CCCN1C(=O)[C@H](CCCNC(=N)N)NC(=O)C1(NC(=O)c2ccc3c(c2)C(=O)OC32c3ccc(O)cc3Oc3cc(O)ccc32)CCCCC1)C(=O)N1CCC[C@H]1C(=O)N[C@@H](CCCNC(=N)N)C(=O)N1CCC[C@H]1C(=O)N[C@@H](CCCNC(=N)N)C(=O)N1CCC[C@H]1C(=O)N1CCC[C@H]1C(=O)N[C@@H](CCCNC(=N)N)C(=O)N1CCC[C@H]1C(=O)N[C@H](C(=O)N[C@@H](CCCNC(=N)N)C(N)=O)C(C)C [Cf-Chex1Arg20] (5FAM-[Ac6c]RPDKPRPYLPRPRPPRPVR-NH2) | slightly more active | 

The next lines start with the molecule.

Row | Compound | MIC (mg/L) 24 h, Cf-labeled peptides ([1]; 1841 (serotype D, 24 h)) | MIC (after 48 h) ([1]; 1841 (serotype D, 48 h)) | MIC (mg/L) 48 h, Cf-labeled peptides ([1]; 1841 (serotype D, 48 h)) | MIC (mg/L) 24 h, Cf-labeled peptides [1, 4] | MIC (mg/L) 48 h, Cf-labeled peptides [1, 5] | activity of Cf-labeled peptide relative to the corresponding unlabeled peptide [1] | other results
3 | CC[C@H](C)[C@H](NC(=O)[C@H](Cc1ccc(O)cc1)NC(=O)[C@@H](NC(=O)[C@@H]1CCCN1C(=O)[C@H](CCCNC(=N)N)NC(=O)[C@H](CC(N)=O)NC(=O)[C@H](CC(N)=O)NC(=O)CNC(=O)c1ccc2c(c1)C(=O)OC21c2ccc(O)cc2Oc2cc(O)ccc21)C(C)C)C(=O)N1CCC[C@H]1C(=O)N[C@@H](CCC(N)=O)C(=O)N1CCC[C@H]1C(=O)N[C@@H](CCCNC(=N)N)C(=O)N1CCC[C@H]1C(=O)N1CCC[C@H]1C(=O)N[C@@H](Cc1c[nH]cn1)C(=O)N1CCC[C@H]1C(=O)N[C@@H](CCCNC(=N)N)C(=O)N[C@@H](CC(C)C)C(=O)O [Cf-Apidaecin 1b] (5FAM-GNNRPVYIPQPRPPHPRL-OH) | >128 mg/L | > 61 µM | >128 mg/L |  |  |  | 
4 | CC[C@H](C)[C@H](NC(=O)[C@@H](CCCNC(=N)N)NC(=O)[C@H](CCCNC(=N)N)NC(=O)[C@@H]1CCCN1C(=O)[C@@H]1CCCN1C(=O)[C@H](CCCNC(=N)N)NC(=O)[C@@H]1CCCN1C(=O)[C@H](CCCNC(=N)N)NC(=O)[C@@H]1CCCN1C(=O)[C@H](CC(C)C)NC(=O)[C@H](Cc1ccc(O)cc1)NC(=O)[C@@H]1CCCN1C(=O)[C@@H]1CCCN1C(=O)[C@H](CCCCN)NC(=O)[C@H](CC(=O)O)NC(=O)[C@@H](NC(=O)c1ccc2c(c1)C(=O)OC21c2ccc(O)cc2Oc2cc(O)ccc21)C(C)C)C(=O)N[C@@H](Cc1ccc(O)cc1)C(=O)N[C@@H](CC(N)=O)C(=O)N[C@H](CCCNC(=N)N)C(N)=O [Cf-Onc112] (5FAM-VDKPPYLPRPRPPR[dR]IYN[dR]-NH2) | 4 to 8 mg/L | 6.7 µM (≈ 18.4 µg/mL) | 4 to 8 mg/L |  |  | slightly more active | 
5 | CC(C)C[C@H](NC(=O)[C@@H]1CCCN1C(=O)[C@H](CCCNC(=N)N)NC(=O)[C@@H]1CCCN1C(=O)[C@H](CCCNC(=N)N)NC(=O)[C@@H]1CCCN1C(=O)[C@@H]1CCCN1C(=O)[C@H](CCCNC(=N)N)NC(=O)[C@@H]1CCCN1C(=O)[C@@H](NC(=O)[C@@H](N)CCCNC(=N)N)C(C)C)C(=O)N[C@@H](Cc1ccc(O)cc1)C(=O)N1CCC[C@H]1C(=O)N[C@@H](CCCNC(=N)N)C(=O)N1CCC[C@H]1C(=O)N[C@@H](CCCCN)C(=O)N[C@@H](CC(=O)O)C(=O)N1CCC[C@H]1C(=O)N[C@@H](CCCNC(=N)N)C(=O)NC1(C(N)=O)CCCCC1 [Chex1Arg20 rev] (H-RVPRPPRPRPLYPRPKDPR[Ac6c]-NH2; N-terminus assumed) |  |  |  |  |  |  | MIC (μmol/L) H99 24 h ([2]; H99 (serotype A, 24 h)): 3.2 µmol/L (≈ 7.92 µg/mL); MIC (mg/L) H99 48 h ([2]; H99 (serotype A, 48 h)): 8 to 16 mg/L; MIC (μmol/L) H99 48 h ([2]; H99 (serotype A, 48 h)): 3.2 to 6.5 µmol/L; MIC (μmol/L) KN99α 24 h ([3]; KN99α (serotype A, mating type MATα, 24 h)): 3.2 µmol/L (≈ 7.92 µg/mL); MIC (μmol/L) KN99α 48 h ([3]; KN99α (serotype A, mating type MATα, 48 h)): 6.5 µmol/L (≈ 16.1 µg/mL); MIC (μmol/L) 1841 24 h ([1]; 1841 (serotype D, 24 h, pH 7.5)): 3.2 µmol/L (≈ 7.92 µg/mL); MIC (μmol/L) 1841 48 h ([1]; 1841 (serotype D, 48 h, pH 7.5)): 3.2 µmol/L (≈ 7.92 µg/mL)
